Where a name gives a salt, the structure may show the parent alone.
Biological target: T1, α7-subtype of nicotinic receptors (Rattus norvegicus, UniProt Q05941)
T1 construct: Cerebral cortices from male Wistar rats (150-250 g) are homogenised; from tissue; host or cells: rat cerebral cortex membrane homogenate
Assay: In vitro inhibition of 3H-α-bungarotoxine binding in rat brain
Conditions: rat cerebral cortex homogenate; 3H-α-bungarotoxine 2 nM; 2 hours at 37° C

T1 sequence (Q05941 23-502): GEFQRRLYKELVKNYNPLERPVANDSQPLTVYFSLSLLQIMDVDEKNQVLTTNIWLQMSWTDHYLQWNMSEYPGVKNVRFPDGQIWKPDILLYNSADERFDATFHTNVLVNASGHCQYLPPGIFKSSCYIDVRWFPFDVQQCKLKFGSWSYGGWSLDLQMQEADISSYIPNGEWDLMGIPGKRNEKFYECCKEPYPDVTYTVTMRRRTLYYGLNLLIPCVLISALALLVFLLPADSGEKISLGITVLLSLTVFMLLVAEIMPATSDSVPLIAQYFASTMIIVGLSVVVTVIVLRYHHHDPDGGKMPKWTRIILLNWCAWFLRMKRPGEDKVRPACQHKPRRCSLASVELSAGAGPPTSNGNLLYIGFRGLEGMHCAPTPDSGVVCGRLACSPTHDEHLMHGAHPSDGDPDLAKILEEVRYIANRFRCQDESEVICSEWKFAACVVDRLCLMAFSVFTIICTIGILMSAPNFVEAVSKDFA

## O=C(Nc1ccc(-c2ccc(C(=O)NC3CN4CCC3CC4)o2)cc1)c1ccccc1 (racemic) [Compound 1, (±)5-(4-Benzoylamino-phenyl)-furan-2-carboxylic acid(1-aza-bicyclo[2.2.2]oct-3-yl)-amide hydrochloric acid salt]
  IC50: 0.08 µM

Source: US7514450B2, “Azabicyclic aryl derivatives” (NeuroSearch A/S, priority 2004, dated 2009)
